Assay results as given in US20230151025A1, “SUBSTITUTED THIAZOLOPYRIDINES, SALTS THEREOF AND THEIR USE AS HERBICIDALLY ACTIVE SUBSTANCES” (Bayer Aktiengesellschaft, priority 2020, published 2023).

Legend:
Type in all cases: in vivo
[1] = tested on: Abutilon theophrasti (ABUTH); assay: Herbicidal post-emergence action (B), 1280 g/ha; conditions: rated visually after about 3 weeks vs untreated controls
Method in brief: (§1)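 Compounds formulated as wettable powder or emulsion concentrate, with 0.5% additive, sprayed at 600 l/ha onto one-leaf-stage plants grown in sandy loam for 2 to 3 weeks. Damage rated visually against untreated plants roughly 3 weeks later; 0% = like control, 100% = plants died.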

[2] = tested on: Alopecurus myosuroides (ALOMY); assay: Herbicidal post-emergence action (B), 1280 g/ha; conditions: rated visually after about 3 weeks vs untreated controls
Method in brief: as §1

[3] = tested on: Amaranthus retroflexus (AMARE); assay: Herbicidal post-emergence action (B), 1280 g/ha; conditions: rated visually after about 3 weeks vs untreated controls
Method in brief: as §1

[4] = tested on: Digitaria sanguinalis (DIGSA); assay: Herbicidal post-emergence action (B), 1280 g/ha; conditions: rated visually after about 3 weeks vs untreated controls
Method in brief: as §1

[5] = tested on: Echinochloa crus-galli (ECHCG); assay: Herbicidal post-emergence action (B), 1280 g/ha; conditions: rated visually after about 3 weeks vs untreated controls
Method in brief: as §1

[6] = tested on: Kochia scoparia (KCHSC; Bassia scoparia); assay: Herbicidal post-emergence action (B), 1280 g/ha
Method in brief: as §1

[7] = tested on: Lolium rigidum (LOLRI); assay: Herbicidal post-emergence action (B), 1280 g/ha; conditions: one-leaf stage, rated after about 3 weeks vs untreated controls, 100% activity = the plants have died, 0% = like control plants
Method in brief: as §1

[8] = tested on: Poa annua (POAAN); assay: Herbicidal post-emergence action (B), 1280 g/ha; conditions: rated visually after about 3 weeks vs untreated controls
Method in brief: as §1

[9] = tested on: Setaria viridis (SETVI); assay: Herbicidal post-emergence action (B), 1280 g/ha; conditions: rated visually after about 3 weeks vs untreated controls
Method in brief: as §1

[10] = tested on: Stellaria media (STEME); assay: Herbicidal post-emergence action (B), 1280 g/ha
Method in brief: as §1

[11] = tested on: Veronica persica (VERPE); assay: Herbicidal post-emergence action (B), 1280 g/ha
Method in brief: as §1

[12] = tested on: Alopecurus myosuroides (ALOMY); assay: Herbicidal pre-emergence action (C), 320 g/ha; conditions: ca. 3 weeks
Method in brief: (§2)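 Pre-emergence soil-surface spray: WP/EC formulation in water plus 0.5% additive, 600 l/ha, applied over freshly sown, soil-covered seeds in sandy loam. Greenhouse, optimum conditions, ~3 weeks. Visual % damage vs untreated (100% = dead).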

[13] = tested on: Amaranthus retroflexus (AMARE); assay: Herbicidal pre-emergence action (C), 320 g/ha; conditions: ca. 3 weeks
Method in brief: as §2

[14] = tested on: Echinochloa crus-galli (ECHCG); assay: Herbicidal pre-emergence action (C), 320 g/ha; conditions: ca. 3 weeks
Method in brief: as §2

[15] = tested on: Lolium rigidum (LOLRI); assay: Herbicidal pre-emergence action (C), 320 g/ha; conditions: ca. 3 weeks
Method in brief: as §2

[16] = tested on: Setaria viridis (SETVI); assay: Herbicidal pre-emergence action (C), 320 g/ha; conditions: ca. 3 weeks
Method in brief: as §2

[17] = tested on: Veronica persica (VERPE); assay: Herbicidal pre-emergence action (C), 320 g/ha; conditions: ca. 3 weeks
Method in brief: as §2

[18] = tested on: Alopecurus myosuroides (ALOMY); assay: Herbicidal post-emergence action (D), 320 g/ha; conditions: ca. 3 weeks
Method in brief: (§3)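 Weeds sown in sandy loam and greenhouse-grown for 2 to 3 weeks, then sprayed at single-leaf stage with WP or EC formulations in water plus 0.5% additive at 600 l water/ha. After ca. 3 weeks, injury scored visually versus untreated controls: 0% = as control, 100% = plants dead.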

[19] = tested on: Amaranthus retroflexus (AMARE); assay: Herbicidal post-emergence action (D), 320 g/ha; conditions: ca. 3 weeks
Method in brief: as §3

[20] = tested on: Veronica persica (VERPE); assay: Herbicidal post-emergence action (D), 320 g/ha; conditions: ca. 3 weeks
Method in brief: as §3

[21] = tested on: Echinochloa crus-galli (ECHCG); assay: Herbicidal post-emergence action (D), 320 g/ha; conditions: ca. 3 weeks
Method in brief: as §3

[22] = tested on: Polygonum convolvulus (POLCO); assay: Herbicidal post-emergence action (D), 320 g/ha; conditions: ca. 3 weeks
Method in brief: as §3

Structure (SMILES) | herbicidal activity ABUTH [1] | herbicidal activity ALOMY [2] | herbicidal activity AMARE [3] | herbicidal activity ECHCG [5] | herbicidal effect KCHSC [6] | LOLRI, activity rated visually (%) [7] | herbicidal activity POAAN [8] | herbicidal activity SETVI [9] | herbicidal effect STEME [10] | herbicidal effect VERPE [11] | herbicidal effect ALOMY [12] | herbicidal effect AMARE [13] | herbicidal effect ECHCG [14] | herbicidal effect LOLRI [15] | herbicidal effect SETVI [16] | herbicidal effect VERPE [17] | herbicidal effect ALOMY [18] | herbicidal effect AMARE [19] | herbicidal effect VERPE [20] | herbicidal effect ECHCG [21] | also measured
CCc1cc2scnc2nc1-c1ccccc1C [Example I-093] | 100% | 100% | 100% | 100% | 100% | 100% | 100% | 100% | 100% | 100% | 100% | 90% | 100% | 100% | 100% | 90% | 90% | 90% | 90% | – | herbicidal activity DIGSA [4]: 100%
Cc1cc2scnc2nc1-c1ccsc1C [Example I-194] | 90% | 100% | 100% | 100% | 100% | 100% | 100% | – | 100% | 100% | 100% | 90% | 100% | 100% | 100% | 80% | 90% | 80% | – | 90% | –
Cc1cc2scnc2nc1-c1sccc1C [Example I-143] | 100% | 100% | 100% | 100% | 100% | 100% | 100% | 90% | 100% | 100% | 100% | 90% | 100% | 100% | 100% | 90% | 90% | 80% | 80% | 80% | –
Fc1ccccc1-c1ccc2scnc2n1 [Example I-036, 5-(2-fluorophenyl)thiazolo[4,5-b]pyridine] | – | – | 100% | 100% | – | 100% | 100% | 100% | 100% | – | 100% | 100% | 100% | 100% | 100% | 90% | – | – | – | 80% | herbicidal effect POLCO [22]: 80%
CCc1cc2scnc2nc1-c1ccc(F)cc1F [Example I-030] | 100% | 90% | 100% | 100% | 100% | 90% | 100% | 90% | 90% | 90% | 100% | 90% | 100% | 100% | 100% | 90% | 80% | – | 90% | – | herbicidal activity DIGSA [4]: 100%; herbicidal effect POLCO [22]: 90%
